According to patent US20080319024A1, “Rosiglitazone Phosphate and Polymorphic Forms” (priority 2004, published 2008):

Key:
[1] = comparator rosiglitazone maleate
[2] = Stress test at 80° C. in a closed vial, degradation determined by HPLC; assay type: physicochemical
[3] = Exposure of Form A to different relative humidities, water content by Karl Fischer; assay type: physicochemical
Procedure: The water content is determined by the Karl Fischer method.
5-[[4-[2-(methyl-2-pyridinylamino)ethoxy]phenyl]methyl]-2,4-thiazolidinedione phosphate hydrate in its polymorphic Form A was exposed to different relative humidities for about 24 hours.

| Structure (SMILES) | Solubility in water compared to rosiglitazone maleate [1] | Stability (general statement) [2] | Degradation after stress test as determined by HPLC ([2]; 80° C., about 160 hours, closed vial) | Water content (Karl Fisher) ([3]; 45% relative humidity, about 24 hours) [% w/w] | Water content (Karl Fisher) ([3]; 63% relative humidity, about 24 hours) [% w/w] | Water content (Karl Fisher) ([3]; 86% relative humidity, about 24 hours) [% w/w] | Water content (Karl Fisher) ([3]; Initial, before exposure to humidity) [% w/w] |
| --- | --- | --- | --- | --- | --- | --- | --- |
| CN(CCOc1ccc(CC2SC(=O)NC2=O)cc1)c1ccccn1.O=P(O)(O)O (stereo not shown) [Form E, 5-[[4-[2-(methyl-2-pyridinylamino)ethoxy]phenyl]methyl]-2,4-thiazolidinedione phosphate] | comparable or even more expressed | – | – | – | – | – | – |
| CN(CCOc1ccc(CC2SC(=O)NC2=O)cc1)c1ccccn1.O=P(O)(O)O (stereo not shown) [Form A, 5-[[4-[2-(methyl-2-pyridinylamino)ethoxy]phenyl]methyl]-2,4-thiazolidinedione phosphate] | – | good stability | no degradation | 3.42 | 3.37 | 3.58 | 2.8 |
